Assay results: article PMC11127902, “Rescuing tri-heteromeric NMDA receptor function: the potential of pregnenolone-sulfate in loss-of-function GRIN2B variants” (Cellular and Molecular Life Sciences: CMLS, 2024)
Read-outs that look alike come from different tables or passages of the source.

Columns and labels:
[1] = system: Pure variant di-heteromeric GluN2B-M818T; parameters: method as in PMID 28377535; conditions: glutamate; ref 25; cited from earlier work
[2] = system: Pure variant di-heteromeric GluN2A-D731N; parameters: method as in PMID 28182669; conditions: glutamate; ref 33; cited from earlier work
[3] = system: Mixed tri-heteromeric GluN2A-E551K/ GluN2B-wt; parameters: method as in PMID 35110392; conditions: glutamate; ref 10; cited from earlier work
[4] = target: T1, Purely di-heteromeric GluN2B-G689S (C1/C2) (Rattus norvegicus, UniProt P35439+Q00959+Q00960, A876H/F846L/G689S/G856D/H848F/K857R/M851T/M860L/Q845K/V861L); assay: TEVC in Xenopus oocytes; type: cell-based
T1 construct: expressed in transfected cells; host or cells: Xenopus laevis oocytes, mRNA injection
T1 sequence (Q00960+Q00959 fused with the stated changes, other chains not shown): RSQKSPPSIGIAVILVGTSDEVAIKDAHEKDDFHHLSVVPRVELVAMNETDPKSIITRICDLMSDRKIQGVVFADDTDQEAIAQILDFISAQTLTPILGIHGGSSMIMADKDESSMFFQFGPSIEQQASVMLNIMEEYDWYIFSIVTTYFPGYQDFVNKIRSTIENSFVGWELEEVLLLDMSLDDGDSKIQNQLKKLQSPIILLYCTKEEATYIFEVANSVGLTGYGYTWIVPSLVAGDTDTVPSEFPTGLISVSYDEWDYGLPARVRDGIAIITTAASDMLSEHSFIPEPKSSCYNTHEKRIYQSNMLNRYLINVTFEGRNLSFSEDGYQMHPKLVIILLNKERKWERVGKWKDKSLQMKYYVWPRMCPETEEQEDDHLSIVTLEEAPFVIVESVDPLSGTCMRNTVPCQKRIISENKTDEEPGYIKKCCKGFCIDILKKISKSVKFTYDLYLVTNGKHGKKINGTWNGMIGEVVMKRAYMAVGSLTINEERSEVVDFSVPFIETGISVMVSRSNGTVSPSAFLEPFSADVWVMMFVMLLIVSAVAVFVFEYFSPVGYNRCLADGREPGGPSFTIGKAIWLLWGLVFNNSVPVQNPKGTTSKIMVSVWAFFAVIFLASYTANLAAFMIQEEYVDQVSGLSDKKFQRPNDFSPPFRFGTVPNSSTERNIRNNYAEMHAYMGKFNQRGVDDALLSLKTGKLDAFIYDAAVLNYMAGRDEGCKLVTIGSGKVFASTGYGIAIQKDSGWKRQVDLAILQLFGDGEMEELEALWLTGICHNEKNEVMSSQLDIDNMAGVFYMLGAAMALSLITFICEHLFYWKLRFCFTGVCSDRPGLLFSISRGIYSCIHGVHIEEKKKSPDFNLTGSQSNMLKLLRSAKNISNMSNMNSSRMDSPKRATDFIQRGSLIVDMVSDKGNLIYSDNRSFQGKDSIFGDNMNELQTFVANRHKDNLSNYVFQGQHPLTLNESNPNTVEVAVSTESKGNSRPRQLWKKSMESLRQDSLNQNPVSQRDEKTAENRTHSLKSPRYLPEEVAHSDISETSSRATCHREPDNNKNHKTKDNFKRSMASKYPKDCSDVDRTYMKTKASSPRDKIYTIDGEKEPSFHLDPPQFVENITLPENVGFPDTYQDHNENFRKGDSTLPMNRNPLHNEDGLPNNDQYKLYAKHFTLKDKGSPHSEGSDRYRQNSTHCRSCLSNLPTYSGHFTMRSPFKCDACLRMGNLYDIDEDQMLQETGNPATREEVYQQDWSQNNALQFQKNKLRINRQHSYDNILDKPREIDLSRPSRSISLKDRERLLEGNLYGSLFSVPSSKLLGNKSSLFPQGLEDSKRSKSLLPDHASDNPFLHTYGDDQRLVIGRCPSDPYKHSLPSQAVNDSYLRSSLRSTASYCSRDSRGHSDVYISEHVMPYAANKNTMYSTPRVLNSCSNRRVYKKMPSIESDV
From the text: (§1) Aliquots were thawed before each experiment.

[5] = target: T2, Purely di-heteromeric GluN2B-G689C (C1/C2) (Rattus norvegicus, UniProt P35439+Q00959+Q00960, A876H/F846L/G689C/G856D/H848F/K857R/M851T/M860L/Q845K/V861L); assay: TEVC in Xenopus oocytes; type: cell-based
T2 construct: expressed in transfected cells; host or cells: Xenopus laevis oocytes, mRNA injection
T2 sequence (Q00960+Q00959 fused with the stated changes, other chains not shown): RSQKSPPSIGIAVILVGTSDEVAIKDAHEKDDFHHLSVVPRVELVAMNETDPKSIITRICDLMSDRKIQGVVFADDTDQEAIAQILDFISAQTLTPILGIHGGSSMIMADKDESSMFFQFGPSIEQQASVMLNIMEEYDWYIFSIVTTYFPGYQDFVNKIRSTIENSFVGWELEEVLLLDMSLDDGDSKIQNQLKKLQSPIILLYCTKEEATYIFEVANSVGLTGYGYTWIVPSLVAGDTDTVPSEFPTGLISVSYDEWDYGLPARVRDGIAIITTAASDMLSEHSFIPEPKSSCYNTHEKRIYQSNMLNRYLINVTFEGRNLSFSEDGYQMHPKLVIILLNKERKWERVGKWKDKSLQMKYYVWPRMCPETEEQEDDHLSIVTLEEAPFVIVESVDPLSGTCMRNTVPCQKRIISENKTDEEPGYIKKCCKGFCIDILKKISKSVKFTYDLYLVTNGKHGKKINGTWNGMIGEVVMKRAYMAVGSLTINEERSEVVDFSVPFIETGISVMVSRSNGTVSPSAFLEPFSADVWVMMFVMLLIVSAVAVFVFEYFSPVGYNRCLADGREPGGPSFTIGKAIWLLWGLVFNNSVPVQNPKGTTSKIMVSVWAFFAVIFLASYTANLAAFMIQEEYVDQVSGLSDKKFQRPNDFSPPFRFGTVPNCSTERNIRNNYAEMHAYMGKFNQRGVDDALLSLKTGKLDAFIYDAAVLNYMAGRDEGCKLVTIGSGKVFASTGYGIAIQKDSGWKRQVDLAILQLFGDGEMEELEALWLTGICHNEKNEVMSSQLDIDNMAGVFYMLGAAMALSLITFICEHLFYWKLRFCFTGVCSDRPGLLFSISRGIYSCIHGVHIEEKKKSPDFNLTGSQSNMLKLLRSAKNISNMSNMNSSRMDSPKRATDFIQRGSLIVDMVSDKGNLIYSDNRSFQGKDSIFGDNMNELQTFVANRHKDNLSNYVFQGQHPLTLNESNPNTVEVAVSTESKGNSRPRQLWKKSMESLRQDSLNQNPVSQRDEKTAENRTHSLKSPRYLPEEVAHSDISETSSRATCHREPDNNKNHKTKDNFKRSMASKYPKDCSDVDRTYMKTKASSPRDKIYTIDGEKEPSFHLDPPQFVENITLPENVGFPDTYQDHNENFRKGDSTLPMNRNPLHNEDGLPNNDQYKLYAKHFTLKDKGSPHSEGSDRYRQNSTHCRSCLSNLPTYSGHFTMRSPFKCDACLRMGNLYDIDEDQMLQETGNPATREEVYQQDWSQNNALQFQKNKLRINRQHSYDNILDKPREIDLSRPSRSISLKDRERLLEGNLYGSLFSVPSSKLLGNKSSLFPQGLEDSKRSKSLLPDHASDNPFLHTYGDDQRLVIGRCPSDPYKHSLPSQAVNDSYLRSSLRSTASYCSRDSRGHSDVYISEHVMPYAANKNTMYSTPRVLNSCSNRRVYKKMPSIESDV
From the text: as §1

[6] = target: T3, Purely di-heteromeric GluN2B-wt (GluN1-1a-wt + GluN2B-wt-C1/C2) (Rattus norvegicus, UniProt P35439+Q00959+Q00960, A876H/F846L/G856D/H848F/K857R/M851T/M860L/Q845K/V861L); assay: TEVC in Xenopus oocytes; type: cell-based; conditions: glutamate dose-response
T3 construct: expressed in transfected cells; host or cells: Xenopus laevis oocytes, mRNA injection
T3 sequence (Q00960+Q00959 fused with the stated changes, other chains not shown): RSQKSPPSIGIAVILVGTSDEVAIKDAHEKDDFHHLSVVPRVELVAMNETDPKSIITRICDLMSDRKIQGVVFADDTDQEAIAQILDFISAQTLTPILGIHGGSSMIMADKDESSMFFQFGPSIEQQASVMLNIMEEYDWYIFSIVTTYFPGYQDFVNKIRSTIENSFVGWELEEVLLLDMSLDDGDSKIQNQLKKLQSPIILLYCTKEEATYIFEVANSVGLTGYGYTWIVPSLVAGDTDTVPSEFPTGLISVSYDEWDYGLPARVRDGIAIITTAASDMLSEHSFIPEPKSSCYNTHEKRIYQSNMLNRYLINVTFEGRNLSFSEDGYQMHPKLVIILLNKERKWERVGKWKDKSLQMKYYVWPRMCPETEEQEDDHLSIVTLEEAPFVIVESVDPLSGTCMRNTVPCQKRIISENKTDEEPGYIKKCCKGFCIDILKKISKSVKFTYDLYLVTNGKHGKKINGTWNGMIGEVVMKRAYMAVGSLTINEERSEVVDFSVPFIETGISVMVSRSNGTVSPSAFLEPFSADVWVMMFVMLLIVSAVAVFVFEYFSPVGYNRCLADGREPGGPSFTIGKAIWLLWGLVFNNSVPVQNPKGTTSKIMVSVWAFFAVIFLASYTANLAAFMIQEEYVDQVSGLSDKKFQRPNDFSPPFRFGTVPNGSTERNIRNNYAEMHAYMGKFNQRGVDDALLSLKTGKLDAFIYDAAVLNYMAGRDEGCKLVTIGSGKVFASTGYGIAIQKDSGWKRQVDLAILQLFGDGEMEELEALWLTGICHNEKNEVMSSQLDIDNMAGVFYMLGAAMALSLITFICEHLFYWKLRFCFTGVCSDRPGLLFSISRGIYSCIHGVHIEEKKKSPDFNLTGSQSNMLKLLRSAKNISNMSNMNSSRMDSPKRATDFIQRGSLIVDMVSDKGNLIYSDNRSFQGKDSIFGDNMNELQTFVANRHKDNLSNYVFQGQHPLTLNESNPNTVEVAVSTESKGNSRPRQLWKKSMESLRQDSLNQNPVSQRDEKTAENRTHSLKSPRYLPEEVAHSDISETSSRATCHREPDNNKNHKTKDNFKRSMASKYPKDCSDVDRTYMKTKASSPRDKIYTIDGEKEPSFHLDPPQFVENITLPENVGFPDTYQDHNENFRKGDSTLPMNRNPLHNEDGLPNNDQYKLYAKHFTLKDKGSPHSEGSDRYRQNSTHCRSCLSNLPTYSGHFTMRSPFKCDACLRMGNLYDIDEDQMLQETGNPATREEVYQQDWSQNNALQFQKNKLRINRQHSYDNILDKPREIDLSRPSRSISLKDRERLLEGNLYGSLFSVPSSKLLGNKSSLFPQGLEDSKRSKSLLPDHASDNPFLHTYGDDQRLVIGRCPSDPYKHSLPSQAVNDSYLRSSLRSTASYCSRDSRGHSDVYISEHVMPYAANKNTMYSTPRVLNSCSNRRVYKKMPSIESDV
From the text: as §1

[7] = target: T4, Mixed di-heteromeric GluN2B-wt/GluN2B-G689S (Rattus norvegicus, UniProt P35439+Q00960, G689S); assay: TEVC in Xenopus oocytes; type: cell-based
T4 construct: expressed in transfected cells; host or cells: Xenopus laevis oocytes, mRNA injection
From the text: as §1

[8] = system: Pure variant di-heteromeric GluN2B-A819T; parameters: method as in PMID 28377535; conditions: glutamate; ref 25; cited from earlier work
[9] = system: Mixed tri-heteromeric GluN2A-L812M/ GluN2B-wt; parameters: method as in PMID 35110392; conditions: glutamate; ref 10; cited from earlier work
[10] = system: Pure variant di-heteromeric GluN2B-C461F; parameters: method as in PMID 27839871; conditions: glutamate; ref 21; cited from earlier work
[11] = system: wt di-heteromeric GluN2A NMDAR; conditions: glutamate, cited from earlier work
[12] = system: Pure variant di-heteromeric GluN2A-L812M; parameters: method as in PMID 24504326; conditions: glutamate; ref 39; cited from earlier work
[13] = system: wt tri-heteromeric GluN2A-wt/GluN2B-wt NMDAR; conditions: glutamate, cited from earlier work
[14] = system: Pure variant di-heteromeric GluN2A-H485A; parameters: method as in PMID 24607230; conditions: glutamate; ref 8; cited from earlier work
[15] = system: Pure variant di-heteromeric GluN2A-L649V; parameters: method as in PMID 35110392; conditions: glutamate; ref 10; cited from earlier work
[16] = system: non-tagged purely di-heteromeric GluN2B-G689S; conditions: read-out: Glutamate EC50 (adapted from[16]); non-tagged human receptors; cited from earlier work
[17] = system: Mixed tri-heteromeric GluN2A-wt/ GluN2B-G543R; parameters: method as in PMID 35110392; conditions: glutamate; ref 10; cited from earlier work
[18] = system: Mixed di-heteromeric GluN2A-wt/GluN2A-T690A; parameters: method as in PMID 24607230; conditions: glutamate; ref 8; cited from earlier work
[19] = system: Mixed di-heteromeric GluN2B-wt/GluN2B-H486A; parameters: method as in PMID 24607230; conditions: glutamate; ref 8; cited from earlier work
[20] = system: Pure variant di-heteromeric GluN2B-G543R; parameters: method as in PMID 35110392; conditions: glutamate; ref 10; cited from earlier work
[21] = system: Pure variant di-heteromeric GluN2A-P552R; parameters: method as in PMID 28095420; conditions: glutamate; di-heteromer section; cited from earlier work
[22] = system: Mixed di-heteromeric GluN2B-wt/GluN2B-E413G; parameters: method as in PMID 27839871; conditions: glutamate; ref 21; cited from earlier work
[23] = system: Double Variant Tri-Heteromeric NMDAR (GluN2A-H485A, GluN2B-H486A); parameters: method as in PMID 24607230; conditions: glutamate; ref 8; cited from earlier work
[24] = system: Tri-heteromeric GluN2A-wt/GluN2B-G689S; type: cell-based, rat; conditions: compared to GluN2A-wt + GluN2B-wt tri-heteromeric channels
From the text: as §1

[25] = target: T5, Tri-heteromeric GluN2A-wt/GluN2B-G689S (Rattus norvegicus, UniProt P35439+Q00959+Q00960, A876H/F846L/G689S/G856D/H848F/K857R/M851T/M860L/Q845K/V861L); type: cell-based; conditions: glutamate dose-response
T5 construct: expressed in transfected cells; host or cells: Xenopus laevis oocytes, mRNA injection
From the text: as §1

[26] = target: T6, Tri-heteromeric GluN2A-wt/GluN2B-G689C (Rattus norvegicus, UniProt P35439+Q00959+Q00960, A876H/F846L/G689C/G856D/H848F/K857R/M851T/M860L/Q845K/V861L); type: cell-based; conditions: glutamate dose-response
T6 construct: expressed in transfected cells; host or cells: Xenopus laevis oocytes, mRNA injection
From the text: as §1

[27] = system: Tri-heteromeric GluN2A-wt/GluN2B-G689C; type: cell-based, rat; conditions: compared to GluN2A-wt + GluN2B-wt tri-heteromeric channels
From the text: as §1

[28] = compared to GluN2B-wt-C1/C2 receptors

N[C@@H](CCC(=O)O)C(=O)O [Glutamate, glutamate]
EC50 [1]: 0.37 µM
EC50 [2]: 30000 µM
EC50 [3]: 0.7 µM
increase in the EC50 value [4, 28]: > 3000 fold
Hill coefficient (nH) ([4]; glutamate dose-response): 2.45 ± 0.41 (N = 2, n = 9)
increase in the EC50 value [5, 28]: ~ 2000 fold
Hill coefficient (nH) ([5]; glutamate dose-response): 2.04 ± 0.28 (N = 2, n = 13)
Hill coefficient (nH) [6]: 0.86 ± 0.29 (N = 6, n = 38)
higher (improved) glutamate potency ([7]; compared to purely di-heteromeric variant channels): ~ four-fold
Hill coefficient (nH) ([7]; glutamate dose-response): 1.02 ± 0.10 n.s (N = 1, n = 13)
EC50 [8]: 0.58 µM
EC50 [9]: 0.84 µM
EC50 [10]: 290 µM
EC50 ([11]; ref 8): 4.2 µM
EC50 ([11]; ref 19): 4.5 µM
EC50 ([11]; ref 32): 3.9 µM
EC50 ([11]; ref 33): 5.7 µM
EC50 ([11]; ref 39): 4 µM
EC50 ([11]; ref 91): 3.6 µM
EC50 [12]: 0.39 µM
EC50 ([13]; ref 8): 2.6 µM
EC50 ([13]; ref 10): 2.2 µM
EC50 [14]: 1060 µM
EC50 [15]: 0.05 µM
EC50 [16]: 2500 ± 400 µM
EC50 [17]: 1.9 µM
EC50 [18]: 660 µM
EC50 [19]: 75 µM
EC50 [20]: 0.22 µM
EC50 [21]: 0.64 µM
EC50 [22]: 21 µM
EC50 [23]: 730 µM
increase in EC50 [24]: ~ 600 fold
Hill coefficient (nH) [25]: 1.06 ± 0.13 n.s (N = 1, n = 11)
Hill coefficient (nH) [26]: 0.85 ± 0.14 n.s (N = 1, n = 10)
increase in EC50 [27]: ~ 300 fold
